From PMC7374097, “UGT2B17 modifies drug response in chronic lymphocytic leukaemia” (British Journal of Cancer, 2020) come the findings set out here.

The target of data set [1] is T1, human liver microsomes (Homo sapiens, UniProt P22310).
T1 sequence (P22310 29-534): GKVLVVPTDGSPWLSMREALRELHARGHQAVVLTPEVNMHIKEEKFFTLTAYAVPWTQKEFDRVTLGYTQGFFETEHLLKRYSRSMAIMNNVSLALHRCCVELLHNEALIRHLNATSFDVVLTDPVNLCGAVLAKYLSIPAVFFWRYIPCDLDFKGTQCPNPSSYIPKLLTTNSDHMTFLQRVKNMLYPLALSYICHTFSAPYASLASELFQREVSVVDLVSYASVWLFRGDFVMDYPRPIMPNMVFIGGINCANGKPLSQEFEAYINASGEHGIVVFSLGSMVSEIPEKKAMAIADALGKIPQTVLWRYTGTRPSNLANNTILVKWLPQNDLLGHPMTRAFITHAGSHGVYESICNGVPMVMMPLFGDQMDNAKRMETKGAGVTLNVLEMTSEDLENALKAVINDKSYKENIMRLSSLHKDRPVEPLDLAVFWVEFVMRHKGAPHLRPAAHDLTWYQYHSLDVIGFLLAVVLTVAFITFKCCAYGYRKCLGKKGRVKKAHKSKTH
In words: Glucuronidation assay with human liver microsomes. The note with it: UGT1A4 inhibitory constant Ki, Liver, inhibitor hecogenin. The method, then: (§1) Electrospray ionisation was performed in the positive ion mode.

In the next data set the target is T2, UGT1A4 (Homo sapiens, UniProt P22310).
T2 sequence (P22310 29-534): T1 sequence (P22310 29-534)
In words: Glucuronidation assay with UGT1A4 supersomes. The following applies: for Ki: UGT1A4 inhibitory constant Ki, UGT1A4, inhibitor hecogenin.

For data set [2], the system named is fludarabine glucuronidation. In words: Fludarabine glucuronidation in drug-treated cell models. Format: cell-based, human. As to the method:
as §1

Data set [3] has as its system MEC1 cells. In words: MTS cell viability assay, MEC1 cells (control or overexpressing UGT2B17). Format: cell-based, human. The note with it: for IC50: Homo sapiens, 72 h; for Fold over control: MEC1, IC50 2B17 / CTRL. The method, then: (§2) Cells were plated at 1 × 10^4 cells/well (MEC1) or at 5 × 10^4 cells/well (JVM2) in 96-well U-bottom tissue culture plates (BD Bioscience, Mississauga, ON, Canada). Drugs were added at time of plating at concentrations ranging from 1 nM to 100 µM (7–9 concentrations per drug), depending on the drug and based on cell viability. MTS cell viability assays (Aqueous One assay, Promega, Madison, WI, USA) were conducted 72 h after treatment initiation according to the manufacturer’s instructions. […] Control cells were treated with corresponding vehicle concentration. […] IC50 were calculated by fitting variable slope non-linear curves to normalised response data from drug treatments using GraphPad Prism v5 (GraphPad Software Inc., La Jolla, CA, USA). Assays were replicated at least three times in triplicates.

In data set [4] the test system is JVM2 cells. The following applies: JVM2, Annexin V/PI, 72 h. As to the method: (§3) Cells plated in 96-well plates at 2 × 10^4 cells/well (MEC1) or 3 × 10^4 cells/well (JVM2) were exposed to varying drug concentrations as above for 72 h. Cells were washed, labelled for 12 min with Annexin V (1:200) and PI (2 µg/ml) in Annexin V binding buffer, then immediately analysed by flow cytometry on a FACSCelesta equipped with a high throughput sampler (BD Bioscience). Annexin V labelling assays were replicated at least twice in duplicates.
(§4) MEC1 (a, c, e) and JVM2 (b, d, f) cells expressing low or high UGT2B17 levels were exposed to
(§5) increasing drug concentrations. Cells were stained with Annexin V (AnV) and propidium iodide (PI) 72
(§6) hours after treatment initiation. The AV-/PI- cells constituted the viable cell population.

Data set [5] relates to MEC1 cells. The note with it: MEC1, Annexin V/PI, 72 h. The method, then: as §3, §4, §5, §6
The test system of the next data set is UGT2B17 expression. In words: UGT2B17 mRNA by RT-qPCR in drug-treated cell models. The class given is cell-based, human. The note with it: MEC1, JVM2 and EHEB cells, drug treatment; P < 0.01.
Data set [6] in a line: Glucuronidation assay with human liver microsomes. The note with it: human, human liver microsomes, pH 7.5. As to the method: as §1
In data set [7] the test system is human liver microsomes. Description: Glucuronidation assay with human liver microsomes. The following applies: for Glucuronide (G) products formed: pooled human liver microsomes, MS. The method, then: as §1
Data set [8] relates to JVM2 cells. Description: MTS cell viability assay, JVM2 cells (control or overexpressing UGT2B17). The class given is cell-based, human. The note with it: for IC50: Homo sapiens, JVM-2, 72 h; for Fold over control: JVM2, IC50 2B17 / CTRL. The method, then:
as §2

Data set [9] deals with individual human UGT isoforms. In words: Screening of tissues and individual recombinant UGT1A (n = 8) and UGT2B (n = 6) enzymes by quantitative MS. The note with it: liver, kidney, intestine and recombinant UGTs. As to the method:
as §1

Substrate in data set [10]: Nc1nc(F)nc2c1ncn2[C@@H]1O[C@H](CO)[C@@H](O)[C@@H]1O
Description: cells, lysate or membranes named. The note with it: predominant drug-G, pH 7.5, 37.0 °C.

Where [11] appears, read: MEC1 cells overexpressing UGT2B17, MTS, read-out: 2B17 IC50.
The mark [12] stands for this setting: MEC1 control cells, MTS, read-out: CTRL IC50.
The mark [13] stands for this setting: JVM2 cells overexpressing UGT2B17, MTS, read-out: 2B17 IC50.
Setting [14] is: JVM2 control cells, MTS, read-out: CTRL IC50.

Where two headings read alike, the source gives them in different places.

Description for UGT1A4: In the absence of commercially available UGT2B11 supersomes, microsomal proteins derived from HEK293 expressing the recombinant UGT2B11 enzyme were used. […] Samples were then stopped by adding 100 µL cold methanol, centrifuged at 16,000×g for 10 min and supernatants analysed by mass spectrometry. The following negative controls were included for each analysis: reaction assays without substrate, without the microsomal fraction and without substrate and microsomal fraction.

Consider `C[C@@H]1CC[C@@]2(OC1)O[C@H]1C[C@H]3[C@@H]4CC[C@H]5C[C@@H](O)CC[C@]5(C)[C@H]4CC(=O)[C@]3(C)[C@H]1[C@@H]2C` [Hecogenin, hecogenin], for which the inhibition constant Ki was found to be 5.8 µM at human liver microsomes [1] (substrate ibrutinib), 0.9 µM at human liver microsomes [1] (substrate idelalisib), 2.8 µM on UGT1A4 (substrate ibrutinib) and 0.6 µM on UGT1A4 (substrate idelalisib). Moreover, the “Formation of ibrutinib and idelalisib G1 and G2 abolished” value at UGT1A4 (UGT1A4 and livers, in the presence of hecogenin) is given as approximately 90%.
`Nc1nc(F)nc2c1ncn2[C@@H]1O[C@H](CO)[C@@H](O)[C@@H]1O` [Fludarabine, fludarabine]: the “Fludarabine glucuronidation following drug treatment” value in data set [2] is on record as “increased”. Further, the half-maximal inhibitory concentration (IC50) worked out at 58.8 µM in the data set with MEC1 cells [3] (setting [11]), 29.3 µM in the data set with MEC1 cells [3] (setting [12]), 15.1 µM in the data set with JVM2 cells [8] (setting [13]) and 9.08 µM with JVM2 cells [8] (setting [14]). Also, the Fold over control in the data set with MEC1 cells [3] was 2.01; in the data set with JVM2 cells [8], 1.66. Besides, the “Concentration at which cytotoxic” value in the data set on JVM2 cells [4] is more than 5 µM. The “Cytotoxicity at clinically relevant concentrations” value with JVM2 cells [4] and in the data set with MEC1 cells [5] was “no cytotoxicity” each time. Further, the “Concentration at which cytotoxicity was observed” value with MEC1 cells [5] is more than 40 µM. In addition, the “Induction of UGT2B17 expression” value with UGT2B17 expression is “significantly induced”. In addition, in data set [6], the Km at 6 h worked out at 878 µM. The “Velocity Vmax” value with human liver microsomes [7] (Liver, predominant drug-G, velocity at highest substrate concentration) is 0.12 pmol/min/mg protein. Further, the “Glucuronide (G) products formed” value in the data set with human liver microsomes [7] is reported as “two glucuronides”. In addition, the “UGT enzyme(s) involved in glucuronidation of the drug” value (shortened to “UGT enzyme(s) involved”) in data set [9] was “UGT2B17 and UGT1A4 were the main conjugating enzymes”.
As for `C[C@H](Nc1ncnc2[nH]cnc12)c1cc2cccc(Cl)c2c(=O)n1-c1ccccc1` [duvelisib], in the data set on human liver microsomes [7], the “Glucuronide (G) products formed” value was “at least one G product”.
Take `CC#CC(=O)N1CCC[C@H]1c1nc(-c2ccc(C(=O)Nc3ccccn3)cc2)c2c(N)nccn12` [acalibrutinib, acalabrutinib]: the “Glucuronide (G) products formed” value in the data set on human liver microsomes [7] was “at least one G product”.
With `O=C(O)CCCc1ccc(N(CCCl)CCCl)cc1` [Chlorambucil, chlorambucil], the half-maximal inhibitory concentration (IC50) in the data set on MEC1 cells [3] (setting [11]) is 12.3 µM; in the data set with MEC1 cells [3] (setting [12]) it was 7.99 µM; in the data set on JVM2 cells [8] (setting [13]), 8.64 µM; in the data set on JVM2 cells [8] (setting [14]), 10.4 µM. Moreover, the Fold over control with MEC1 cells [3] worked out at 1.55; in the data set on JVM2 cells [8] it was 0.83. Moreover, the “Glucuronide (G) products formed” value with human liver microsomes [7] is on record as “at least one G product”. In addition, the “UGT enzyme(s) involved” value in data set [9] was “UGT2B17 plays a role in the inactivation”.
Consider `CC[C@H](Nc1ncnc2[nH]cnc12)c1nc2cccc(F)c2c(=O)n1-c1ccccc1` [Idelalisib, idelalisib], for which, in data set [2], the “Fludarabine glucuronidation following drug treatment” value is “increased”. In addition, the IC50 in the data set on MEC1 cells [3] (setting [11]) turned out to be 7.4 µM; with MEC1 cells [3] (setting [12]) it was 1.73 µM; in the data set with JVM2 cells [8] (setting [13]) it was 2.95 µM; in the data set with JVM2 cells [8] (setting [14]), 1.79 µM. The “Cytotoxicity at clinically relevant concentrations” value was “low and no cytotoxicity” in the data set with JVM2 cells [4]; “low and no cytotoxicity” in the data set on MEC1 cells [5].
Turning to `C=CC(=O)N1CCC[C@@H](n2nc(-c3ccc(Oc4ccccc4)cc3)c3c(N)ncnc32)C1` [Ibrutinib, ibrutinib], the 50% inhibitory concentration (IC50) is 4.13 µM in the data set on MEC1 cells [3] (setting [11]), 0.99 µM in the data set on MEC1 cells [3] (setting [12]), 8.95 µM in the data set on JVM2 cells [8] (setting [13]) and 3.64 µM in the data set with JVM2 cells [8] (setting [14]).
Turning to `CC1(C)CCC(CN2CCN(c3ccc(C(=O)NS(=O)(=O)c4ccc(NCC5CCOCC5)c([N+](=O)[O-])c4)c(Oc4cnc5[nH]ccc5c4)c3)CC2)=C(c2ccc(Cl)cc2)C1` [Venetoclax, venetoclax], the IC50 in the data set on MEC1 cells [3] (setting [11]) was determined as 4.16 µM; in the data set on MEC1 cells [3] (setting [12]), 2.22 µM; in the data set on JVM2 cells [8] (setting [13]) it was 2.94 µM; in the data set on JVM2 cells [8] (setting [14]), 4.06 µM. For the same molecule, the Fold over control amounted to 1.87 in the data set on MEC1 cells [3] and 0.72 with JVM2 cells [8]. In addition, the “Glucuronide (G) products formed” value with human liver microsomes [7] was “at least one G product”.
Regarding `Cn1c(CCCC(=O)O)nc2cc(N(CCCl)CCCl)ccc21` [Bendamustine, bendamustine], the half-inhibitory concentration (IC50) in the data set with MEC1 cells [3] (setting [11]) came out at 76 µM; in the data set on MEC1 cells [3] (setting [12]), 60.1 µM; with JVM2 cells [8] (setting [13]) it was 62.8 µM; in the data set with JVM2 cells [8] (setting [14]), 54.2 µM. Also, the Fold over control amounted to 1.27 in the data set with MEC1 cells [3] and 1.16 with JVM2 cells [8]. For the same molecule, the “Glucuronide (G) products formed” value in the data set with human liver microsomes [7] is on record as “at least one G product”.
On to `CCS(=O)(=O)N1CCN(c2ccc(Nc3ncc(C(N)=O)c(NC4CC4)n3)cc2)CC1` [cerdulatinib], for which the “Glucuronide (G) products formed” value in the data set on human liver microsomes [7] is reported as “at least one G product”. For the same molecule, the “UGT enzyme(s) involved” value in data set [9] is reported as “UGT2B17 plays a role in the inactivation”.

B1: UGT1A4 (Homo sapiens) (protein)
chain: T1 sequence (P22310 29-534)
As for B1, in data set [10] (other: UGT1A4), the Michaelis-Menten constant (Km) was found to be 1020 µM and the Vmax was found to be 0.05 pmol/min/mg protein.

B2: UGT2B17 (Homo sapiens) (protein)
chain: GKVLVWPTEYSHWINMKTILEELVQRGHEVIVLTSSASILVNASKSSAIKLEVYPTSLTKNDLEDFFMKMFDRWTYSISKNTFWSYFSQLQELCWEYSDYNIKLCEDAVLNKKLMRKLQESKFDVLLADAVNPCGELLAELLNIPFLYSLRFSVGYTVEKNGGGFLFPPSYVPVVMSELSDQMIFMERIKNMIYMLYFDFWFQAYDLKKWDQFYSEVLGRPTTLFETMGKAEMWLIRTYWDFEFPRPFLPNVDFVGGLHCKPAKPLPKEMEEFVQSSGENGIVVFSLGSMISNMSEESANMIASALAQIPQKVLWRFDGKKPNTLGSNTRLYKWLPQNDLLGHPKTKAFITHGGTNGIYEAIYHGIPMVGIPLFADQHDNIAHMKAKGAALSVDIRTMSSRDLLNALKSVINDPIYKENIMKLSRIHHDQPVKPLDRAVFWIEFVMRHKGAKHLRVAAHNLTWIQYHSLDVIAFLLACVATMIFMITKCCLFCFRKLAKTGKKKKRD
For B2, in [10] (other: UGT2B17), the Km came out at 949 µM and the Vmax came to 0.01 pmol/min/mg protein.
